Reference: PMC6234094 (Bioorganic & medicinal chemistry, 2018)

Columns and labels:
LasR [1] = biological target: T1, LasR (Pseudomonas aeruginosa, UniProt P25084); test: LasR agonism, E. coli JLD271; format: cell-based; conditions: for Loss in potency (EC50) relative to OdDHL (1) in LasR: ratio of EC50 to that of OdDHL, LasR reporter
QscR [2] = biological target: T2, QscR (Pseudomonas aeruginosa, UniProt G3XD77); test: QscR agonism, E. coli JLD271; format: cell-based; conditions: for Reduction in potency relative to OdDHL (1) in QscR: ratio of EC50 to that of OdDHL, QscR reporter; for QscR agonism, result in words: E. coli QscR reporter
LasR [3] = conditions: cited from earlier work
LasR [4] = biological target: T1, LasR; test: LasR antagonism in competition with OdDHL, E. coli reporter assay; format: cell-based; conditions: dose response in competition against OdDHL (1)
QscR [5] = biological target: T2, QscR; conditions: cited from earlier work
QscR [6] = biological target: T2, QscR; test: QscR antagonism in competition with OdDHL, E. coli reporter assay; format: cell-based

T1 sequence (P25084 whole entry): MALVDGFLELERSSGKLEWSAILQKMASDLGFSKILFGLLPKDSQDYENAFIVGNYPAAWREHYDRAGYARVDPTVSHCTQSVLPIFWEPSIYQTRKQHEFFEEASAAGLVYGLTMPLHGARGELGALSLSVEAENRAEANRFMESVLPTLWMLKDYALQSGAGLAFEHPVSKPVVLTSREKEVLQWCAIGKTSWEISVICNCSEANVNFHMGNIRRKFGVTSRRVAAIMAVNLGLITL

SMILES	Loss in potency (EC50) relative to OdDHL (1) in LasR (LasR [1])	Reduction in potency relative to OdDHL (1) in QscR (QscR [2])	LasR agonism, result in words (earlier report) (LasR [3])	QscR agonism, result in words (QscR [2])	further results
CCCCCCCCCC(=O)CC(=O)N[C@H]1CCOC1 [Compound 7]	600 fold				
CCCCCCCCCC(=O)CC(=O)N[C@H]1CCCC1=O [Compound 5]	10–20 fold	~ 55 fold	retained agonistic activity in LasR but was not nearly as potent as OdDHL		
CCCCCCCCCC(=O)CC(=O)N[C@H]1CCSC1=O [Compound 3]		five-fold less potent	agonize LasR comparably to OdDHL		
CCCCCCCCCC(=O)CC(=O)NC1CCCC1 [Compound 6]	100 fold	24 fold	some agonistic activity		
CCCCCCCCCCCS(=O)(=O)N[C@H]1CCOC1=O [Compound 10]				weak agonistic activity	LasR agonism, result in words (LasR [1]; E. coli LasR reporter): inactive; LasR antagonism, result in words (LasR [4]): failed to antagonize LasR; LasR activity, result in words (earlier report) (LasR [3]): inactive; QscR activity, result in words (earlier report) (QscR [5]): mild agonist
CCCCCCCCCC(=O)CC(=O)NCC1CCCO1 (centres unmarked) [Compound 9]				negligible activity	IC50 (QscR [6]): > 250 µM
CCCCCCCCCC(=O)CC(=O)N[C@H]1CCNC1=O [Compound 4]	10–20 fold	> 200 fold			Potency in LasR relative to OdDHL based on EC50 (earlier report) (LasR [3]; less potent than OdDHL): about 100 fold
CCCCCCCCCC(=O)CC(=O)O[C@H]1CCOC1=O [Compound 11]					IC50 (QscR [6]): > 250 µM
CCCCCCCCCC(=O)CC(=O)N[C@H]1CCO[C@@H]1O [Compound 8]	~ 1200 fold			very weak QscR agonist	Concentration at which LasR is agonized (earlier report) (LasR [3]; only at very high concentrations): 400 µM
